How the values were obtained:
Assay type in all cases: in vivo, Balb/C mice
[1] = test system: hematopoietic recovery after cyclophosphamide; test: Hematopoietic recovery after cyclophosphamide (Example 50); conditions: day 5; 2 μmoles/mouse
Experimental: Cyclophosphamide (CP) (275 mg/kg, i.p.) was administered to 96 Balb/C female mice weighing approximately 20 grams each. Twenty-four hours later and each day thereafter mice were given a 0.4 ml i.p. injection of either Tween-80 (0.2%) (controls), palmitoyldeoxyguanosine (2 μmoles/mouse), palmitoyldeoxyinosine (2 μmoles/mouse), palmitoylacyclovir (2 μmoles/mouse), palmitoylarabinosylguanine (2 μmoles/mouse), palmitoylarabinosylhypoxanthine (2 μmoles/mouse), monopalmitoylguanosine 2',3'-acyclic dialcohol (2 μmoles/mouse), and palmitoyl-8-thioguanosine (2 μmoles/mouse). On days 5 and 7 following CP administration 6 animals in each of the 8 groups were bled and then sacrificed by cervical dislocation. Spleens were removed and weighed, and complete blood cell counts performed.

[2] = test system: hematopoiesis in normal mice; test: Hematopoiesis in normal mice (Example 56); conditions: day 5; 2.6 μmoles/mouse, 4 days
In short: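 Normal female Balb/C mice (~20 g; 3 per group) received daily i.p. saline or acylated guanosine derivatives (2.6 μmoles/mouse) for 4 days. On day 5, animals were bled and sacrificed. Spleen weights, complete blood counts and femoral marrow differential counts were recorded.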

[3] = test system: hematopoiesis in normal mice; test: Hematopoiesis in normal mice (Example 44)
Experimental: Normal, otherwise untreated, female Balb/C mice weighing approximately 20 grams each received a total of 4 or 9 0.4 ml intraperitoneal injections (one per day) of either Tween-80 (0.2%) (controls), palmitoylguanosine (2.5 μmoles/mouse/day), or palmitoyldeoxyinosine (2.5 μmoles/mouse/day). Twenty-four hours after the 4th or 9th treatment, groups of 5 or 6 animals from each of the 3 groups were bled and then sacrificed by cervical dislocation. Spleens were removed and weighed, and complete blood cell counts performed.

[4] = test system: hematopoietic recovery after cyclophosphamide; test: Hematopoietic recovery after cyclophosphamide, acyl chain length (Example 38); conditions: day 7
Experimental: Cyclophosphamide (CP) (275 mg/kg, i.p.) was administered to 70 Balb/C female mice weighing approximately 20 grams each. Twenty-four hours later and each day thereafter for a total of 6 days, mice were given a 0.4 ml i.p injection of either physiological saline (controls), Tween 80 (0.2%), guanosine (5 μmoles/mouse/day in 0.2% Tween 80), or 2.5 μmoles per mouse per day of one of the following acylated derivatives of guanosine in 0.2% Tween 80: triacetylguanosine, octanoylguanosine, lauroylguanosine, or palmitoylguanosine. On day 7 following CP administration all 10 animals from each of the 7 groups were bled, and then sacrificed by cervical dislocation. Spleens were removed and weighed, and complete blood counts performed.

[5] = test system: hematopoietic recovery after 5-fluorouracil; test: Hematopoietic recovery after 5-fluorouracil (Example 43)
Experimental: 5-fluorouracil (5-FU) (150 mg/kg,i.p.) was administered to fifty-four Balb/C female mice weighing approximately 20 grams each. Twenty-four hours later and each day thereafter for a total of 7 days, mice were given a 0.4 ml i.p. injection of either physiological saline (controls) or palmitoylguanosine (2.5 μmoles/mouse/day in 0.2% Tween 80). On days 8, 10 and 12 following administration of 5-FU nine animals from each group were bled and then sacrificed by cervical dislocation. Spleens were removed and weighed, and complete blood cell counts performed.

[6] = test system: hematopoietic recovery after cyclophosphamide; test: Hematopoietic recovery after cyclophosphamide (Example 47)
Experimental: Cyclophosphamide (CP) (275 mg/kg, i.p.) was administered to 48 Balb/C female mice weighing approximately 20 grams each. Twenty-four hours later and each day thereafter for a total of 6 days, mice were given a 0.4 ml i.p. injection of either physiological saline (controls), benzoylguanosine (2.5 μmoles/mouse/day in 0.2% Tween 80), or palmitoylguanosine (2.5 μmoles/mouse/day in 0.2% Tween 80). On days 7 and 10 following CP administration 8 animals from each of the 3 groups were bled and then were sacrificed by cervical dislocation. Spleens were removed and weighed, and complete blood cell counts performed.

[7] = test system: hematopoietic recovery after cyclophosphamide; test: Timing of administration, hematopoietic recovery after cyclophosphamide (Example 41); conditions: day 7
Experimental: Cyclophosphamide (CP) (275 mg/kg, i.p.) was administered to 81 Balb/C female mice weighing approximately 20 grams each. Twenty-four hours later treatment was begun. Mice were given a 0.4 ml i.p. injection of either physiological saline (controls), Tween 80 (0.2%), or palmitoylguanosine (5 μmoles/mouse/day in 0.2% Tween 80). The timing of the treatments was varied within the groups. The control group was given saline on days 1-6. The mice receiving Tween 80 were treated either on days 1-4, 4-6 or 1-6. Palmitoylguanosine-treated mice were treated either on days 1-2, 1-4, 3-5, 4-6 or 1-6. If a group of mice received no Tween 80 or palmitoylguanosine on a given day, saline was administered by i.p. injection. Thus, there were 9 groups of 9 animals in all. On day 7 following CP administration all of the animals were bled and then sacrificed by cervical dislocation. Spleens were removed and weighed, and complete blood cell counts performed.

irradiated mice = test: Survival of irradiated mice (Example 39); conditions: for mice surviving 30 days after irradiation over number irradiated: 50 mg/kg i.p., 6 days after irradiation
Experimental: Thirty female Balb/C mice weighing 20 grams each were irradiated with Cobalt 60 gamma radiation at a dose rate of 7.3 Rads per minute. The total dose was either 700, 725, or 750 Rads. Twenty-four hours later and each day thereafter for a total of 6 days, these mice received an i.p. injection of either physiological saline (controls) or 50 mg/kg of palmitoylguanosine. The number of animals surviving in each group was observed over a 30 day period.

CCCCCCCCCCCCCCCC(=O)OC[C@H]1O[C@@H](n2cnc3c(=O)[nH]c(N)nc32)[C@H](O)[C@@H]1O
spleen weight [1]: significantly elevated | spleen weight [2]: significantly elevated | spleen weight ([3]; day 5, 2.5 μmoles/mouse/day i.p.): significantly greater | total leukocyte counts ([3]; day 10, vs Tween 80): significantly elevated | white blood cell (WBC) counts [4]: greatest effect on total WBC counts | spleen weight ([4]; guanosine 5, acyl derivatives 2.5 μmoles/mouse/day i.p.): significantly larger spleens | Platelets ([5]; day 8, 2.5 μmoles/mouse/day i.p., vs control): significantly greater | Platelets ([5]; day 10, vs control): greater numbers of platelets | spleen size ([5]; day 10, vs saline): significantly larger | number of neutrophils, fold greater than control ([5]; day 12): 3 fold | spleen weight ([5]; day 12, vs control): more than double | Neutrophils ([6]; day 7, 2.5 μmoles/mouse/day): significantly elevated | spleen weight ([6]; day 7, 2.5 μmoles/mouse/day): significantly elevated | total white blood cells ([6]; day 7, 2.5 μmoles/mouse/day): significantly elevated | platelet number ([6]; day 10): significantly greater | spleen weight ([7]; 5 μmoles/mouse/day, any time period, vs saline): significantly greater spleen weight | total white blood cell (WBC) counts ([7]; all periods except days 4-6, vs Tween 80): significantly greater | spleen weight ([7]; any period, vs Tween 80): larger spleens | total white blood cell (WBC) counts ([7]; each treatment period, vs saline): significantly greater | lymphocyte counts ([7]; treatment days 1-2 or 1-6): elevated lymphocyte counts | spleen weight ([7]; treatment days 1-4 or 1-6, among periods): greatest effect on spleen weight | total neutrophil counts ([7]; treatment days 1-6): greatest increase in total neutrophil counts | total white blood cell (WBC) counts ([7]; treatment days 1-6, vs other periods): greatest effect | total neutrophils ([7]; treatment days 1 and 2, vs saline or Tween 80): significant increase in total neutrophils | mice surviving (irradiated mice; 2 higher radiation doses, 30 days): all of the mice treated with palmitoylguanosine survived | mice surviving 30 days after irradiation over number irradiated (irradiated mice; 725 R): 5/5 | mice surviving 30 days after irradiation over number irradiated (irradiated mice; 750 R): 5/5 | survival (irradiated mice; pretreatment prior to irradiation): improved survival

— patent publication US6054441A, “Oxypurine nucleosides and their congeners, and acyl derivatives thereof, for improvement of hematopoiesis” (priority 1995, dated 2000)
